Columns and labels:
[1] = test system: melanocytes; settings: cited from earlier work
[2] = test system: experimental inflammatory arthritis; settings: oral; cited from earlier work
[3] = test system: MC3R; settings: cited from earlier work
[4] = test system: macrophages; settings: cited from earlier work
[5] = test system: acute peritonitis induced by zymosan A; test: Zymosan A induced acute peritonitis in mice (peritoneal cytokines by ELISA, neutrophil counts by flow cytometry); type: in vivo, mice (C57BL/6J); settings: 1 mg/kg intraperitoneal 30 minutes before zymosan A, sacrifice twelve hours later, N=6
Procedure: Acute peritonitis was induced by the injection of 1 mg zymosan A (Sigma-Aldrich) i.p. in 0.5 ml sterile PBS in mice. Twelve hours later the mice were sacrificed by CO2 exposure, and peritoneal cavities were washed with 4 ml ice-cold PBS containing 3 mM EDTA. Cells were stained with Turk’s solution (0.01% crystal violet in 3% acetic acid) and counted using a Neubauer hemocytometer or were stained with FITC-conjugated mAb for Ly-6G/Gr1, F4/80, and corresponding isotype controls (eBioscience, Hatfield, U.K.), and subjected to flow-cytometry analysis using a BD FACSCalibur platform (BD Biosciences, Oxford, U.K.).
Levels of IL-1β and IL-6 in quick frozen samples were quantified according to the manufacturer’s instructions using ELISA Ready-SET-Go! (eBioscience).
All animal studies were approved by and performed under the guidelines of the Ethical Committee for the Use of Animals, Barts and The London School of Medicine and Home Office regulations (Guidance on the Operation of Animals, Scientific Procedures Act, 1986). Male (7-8 wk old) C57BL/6J wild-type (WT) mice were purchased from Charles River Laboratories.
Test Item A, 1 mg/kg or vehicle treatment were given intraperitoneal 30 minutes before induction of the acute peritonitis. N=6 for in both groups.

[6] = test system: MC1R; settings: cited from earlier work
[7] = test system: mouse primary macrophages; settings: cited from earlier work
[8] = target: MC1R (Homo sapiens, UniProt Q01726); settings: cited from earlier work
[9] = test system: Covid-19 induced pulmonary insufficiency; settings: 100 mg once daily oral, add-on to standard therapy; 6 patients
Procedure: The initial open label part of the study was conducted in 6 patients referred to hospital with Covid-19 induced pulmonary insufficiency, defined as a need for supplementary oxygen to maintain normal saturation.

[10] = test system: peritonitis; settings: oral; cited from earlier work

MC1R (Homo sapiens, UniProt Q01726), sequence (Q01726 whole entry, species assumed): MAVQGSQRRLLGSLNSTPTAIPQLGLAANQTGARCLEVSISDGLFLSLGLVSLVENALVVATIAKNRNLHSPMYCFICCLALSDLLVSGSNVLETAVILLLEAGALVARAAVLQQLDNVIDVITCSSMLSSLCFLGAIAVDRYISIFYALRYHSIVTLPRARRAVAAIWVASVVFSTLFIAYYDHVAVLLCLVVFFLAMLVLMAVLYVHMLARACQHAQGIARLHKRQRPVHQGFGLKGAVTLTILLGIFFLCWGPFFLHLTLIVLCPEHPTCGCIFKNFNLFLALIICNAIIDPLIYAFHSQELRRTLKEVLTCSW

In the case of `NC(N)=N/N=C/C=C/c1cccn1-c1ccccc1[N+](=O)[O-]` [AP1189, (E)-N-trans-{3-[1-(2-nitrophenyl)-1H-pyrrol-2-yl]-allylidene}-aminoguanidium acetate], the melanogenesis [1] is listed as “no melanogenesis was induced”, the “macroscopic and histological parameters of joint disruption” value [2] is listed as “significant reduction” and the “ERK1/2 phosphorylation (MC3R)” value [3] is listed as “cause ERK1/2 phosphorylation”. For the same compound, the “canonical cAMP generation (MC3R)” value [3] was “does not induce canonical cAMP generation”, the “type of agonism at MC3R” value [3] was “biased agonist” and the cytokine release [4] was “reduce cytokine release”. The “reduction of neutrophil accumulation compared to vehicle” value [5] was 70%, the “reduction of levels of pro-inflammatory cytokine IL-1β compared to pretreatment with vehicle” value ([5]; p<0.05 vs vehicle) was 37% and the “reduction of levels of pro-inflammatory cytokine IL-6 compared to pretreatment with vehicle” value ([5]; p<0.05 vs vehicle) was 59%. The “ERK1/2 phosphorylation (MC1R)” value [6] was “cause ERK1/2 phosphorylation”, the “canonical cAMP generation (MC1R)” value [6] was “does not induce canonical cAMP generation” and the “type of agonism at MC1R” value [6] was “biased agonist”. The efferocytosis [7] was “proefferocytic effect”, the “binding to MC1R” value [8] was “bind the MC1R” and the “development of a need for more intensive pulmonary support” value [9] was “none of them developed a need for more intensive pulmonary support”. For the same compound, the safety and tolerability [9] was “safe and well tolerated”, the “anti-inflammatory action in peritonitis” value [10] was “elicits anti-inflammatory actions” and the “resolution phase of peritonitis” value [10] was “accelerated the resolution phase”.
